Reference: patent US8906966B2, “Medicaments containing panthenol” (priority 2006, dated 2014)

Legend:
Format in all cases: in vivo, human
[1] = system: patients treated for traumatic inflammatory conditions; assay: Safety and tolerability from case notes of the 62 patients, Example 1
Method: 62 patients ([…]) aged 21 to 85 years were treated for traumatic inflammatory conditions. The patients were administered one or more intra-articular or peri-articular injections, i.e., into the inflamed joint or nearby area, of dexpanthenol in combination with a long acting local anesthetic [4 ml of an aqueous solution of dexpanthenol Ph Eur (equal to 1 g of dexpanthenol); 1 ml of 0.1% bupivacaine].
Five (8%) of the 62 patients reported adverse events, including numbness and injection site pain, which resolved with time.

[2] = system: patients treated for traumatic inflammatory conditions; assay: Pain relief following intra-articular or peri-articular injection, Example 1; conditions: for Outcome: Improved (%) / Outcome: Improved n / Outcome: No change (%) / Outcome: No change n / Outcome: Not reported (%) / Outcome: Not reported n / Outcome: Temporarily improved (%) / Outcome: Temporarily improved n / Outcome: Worsened (%) / Outcome: Worsened n: 1 g dexpanthenol + 1 ml 0.1% bupivacaine intra- or peri-articular
Method: 62 patients ([…]) aged 21 to 85 years were treated for traumatic inflammatory conditions. The patients were administered one or more intra-articular or peri-articular injections, i.e., into the inflamed joint or nearby area, of dexpanthenol in combination with a long acting local anesthetic [4 ml of an aqueous solution of dexpanthenol Ph Eur (equal to 1 g of dexpanthenol); 1 ml of 0.1% bupivacaine]. In terms of pain relief following injection, efficacy outcome of the treatment is shown in the table below: Injection of facet joints has previously almost invariably been done using MRI to ensure exact placing of the needle. […] By palpating the patient's back in the area of pain and spasm, there is often an area of extreme tenderness about 5 cms from the midline, indicating the site of the inflamed facet joints. If a needle is inserted at right angles into this area, it will be located in or exceedingly close to the facet joint.

inflamed joint = assay: Patient response to a program of injections into or outside the inflamed joint (description)
Method: In some embodiments, a typical dose is an aqueous solution (about 2 milliliters) containing about 500 mg of panthenol (e.g., dexpanthenol) or an aqueous solution (about 4 milliliters) containing about 1000 mg of panthenol (e.g., dexpanthenol). Lower doses can also be used (e.g., 250 mg of panthenol). The aqueous solution can be injected directly into the site of the inflamed joint or outside of the joint as described herein. A program of injections is generally desirable in which dosages similar to that indicated above are given at intervals of a few days (e.g., 2, 3, 4, 5, or 6 days) to about one week. Reduced inflammation and increased freedom of movement is typically noticeable within 48 hours from the initial injection. Using the 1000 mg dose, patients have reported an estimated 80% reduction of pain after the first injection. In certain embodiments, for larger doses (e.g., ≧1000 milligrams), the active ingredient can be provided in two or more closely spaced (e.g., from about 5 minutes to about 1 hour) and smaller doses (e.g., each independently about 400, about 500, or about 600 milligrams).

[3] = of the 62 patients, numbness and injection site pain, resolved with time, with bupivacaine
[4] = Total of all sites of complaint, n 98
[5] = site of complaint Back (post-traumatic spondylitis), n 54
[6] = where outcome reported, cohort of 62 patients, with bupivacaine

`CC(C)(CO)[C@@H](O)C(=O)NCCCO` [dexpanthenol] was tested, and the safety and tolerability ([1]; injections into the joint or nearby area, in combination with bupivacaine, 62 patients) was “generally safe and well tolerated”, the “patients who reported adverse events (%)” value [1, 3] was 8% and the “patients who reported adverse events (number)” value [1, 3] was “Five”. For the same compound, the “Outcome: Improved (%)” value [2, 4] was 50.0%, the “Outcome: Improved n” value [2, 4] was 49 n and the “Outcome: No change (%)” value [2, 4] was 10.2%. For the same compound, the “Outcome: No change n” value [2, 4] was 10 n, the “Outcome: Not reported (%)” value [2, 4] was 20.4% and the “Outcome: Not reported n” value [2, 4] was 20 n. For the same compound, the “Outcome: Temporarily improved (%)” value [2, 4] was 13.2%, the “Outcome: Temporarily improved n” value [2, 4] was 13 n and the “Outcome: Worsened (%)” value [2, 4] was 6.1%. The “Outcome: Worsened n” value [2, 4] was 6 n, the “effectiveness of injection adjacent to the facet joint versus directly into the joint” value ([2]; facet joints, injection without MRI) was “equally effective” and the “Outcome: Improved (%)” value [2, 5] was 55.6%. For the same compound, the “Outcome: Improved n” value [2, 5] was 30 n, the “Outcome: No change (%)” value [2, 5] was 11.1% and the “Outcome: No change n” value [2, 5] was 6 n. For the same compound, the “Outcome: Not reported (%)” value [2, 5] was 16.7%, the “Outcome: Not reported n” value [2, 5] was 9 n and the “Outcome: Temporarily improved (%)” value [2, 5] was 11.1%. The “Outcome: Temporarily improved n” value [2, 5] was 6 n, the “Outcome: Worsened (%)” value [2, 5] was 5.6% and the “Outcome: Worsened n” value [2, 5] was 3 n. The “Outcome: Improved (%)” value ([2]; site of complaint Hip, n 22) was 40.9%, the “Outcome: Improved n” value ([2]; site of complaint Hip, n 22) was 9 n and the “Outcome: No change (%)” value ([2]; site of complaint Hip, n 22) was 9.1%. The “Outcome: No change n” value ([2]; site of complaint Hip, n 22) was 2 n, the “Outcome: Not reported (%)” value ([2]; site of complaint Hip, n 22) was 22.7% and the “Outcome: Not reported n” value ([2]; site of complaint Hip, n 22) was 5 n. For the same compound, the “Outcome: Temporarily improved (%)” value ([2]; site of complaint Hip, n 22) was 18.2%, the “Outcome: Temporarily improved n” value ([2]; site of complaint Hip, n 22) was 4 n and the “Outcome: Worsened (%)” value ([2]; site of complaint Hip, n 22) was 9.1%. The “Outcome: Worsened n” value ([2]; site of complaint Hip, n 22) was 2 n, the “Outcome: Improved (%)” value ([2]; site of complaint Knee, n 8) was 62.5% and the “Outcome: Improved n” value ([2]; site of complaint Knee, n 8) was 5 n. The “Outcome: No change (%)” value ([2]; site of complaint Knee, n 8) was 12.5%, the “Outcome: No change n” value ([2]; site of complaint Knee, n 8) was 1 n and the “Outcome: Not reported (%)” value ([2]; site of complaint Knee, n 8) was 25.0%. The “Outcome: Not reported n” value ([2]; site of complaint Knee, n 8) was 2 n, the “Outcome: Temporarily improved (%)” value ([2]; site of complaint Knee, n 8) was 0 (0) % and the “Outcome: Temporarily improved n” value ([2]; site of complaint Knee, n 8) was 0 (0) n. For the same compound, the “Outcome: Worsened (%)” value ([2]; site of complaint Knee, n 8) was 0 (0) %, the “Outcome: Worsened n” value ([2]; site of complaint Knee, n 8) was 0 (0) n and the “Outcome: Improved (%)” value ([2]; site of complaint Other, n 14) was 35.7%. The “Outcome: Improved n” value ([2]; site of complaint Other, n 14) was 5 n, the “Outcome: No change (%)” value ([2]; site of complaint Other, n 14) was 7.1% and the “Outcome: No change n” value ([2]; site of complaint Other, n 14) was 1 n. The “Outcome: Not reported (%)” value ([2]; site of complaint Other, n 14) was 28.6%, the “Outcome: Not reported n” value ([2]; site of complaint Other, n 14) was 4 n and the “Outcome: Temporarily improved (%)” value ([2]; site of complaint Other, n 14) was 21.4%. For the same compound, the “Outcome: Temporarily improved n” value ([2]; site of complaint Other, n 14) was 3 n, the “Outcome: Worsened (%)” value ([2]; site of complaint Other, n 14) was 7.1% and the “Outcome: Worsened n” value ([2]; site of complaint Other, n 14) was 1 n. For the same compound, the “patients who said that their condition had worsened” value [2, 6] was “less than 10%” and the “share of all patients who benefited from pain relief” value [2, 6] was “about three-quarters”.

For `CC(C)(CO)[C@@H](O)C(=O)NCCCO` [panthenol], the “reduction of pain reported by patients” value (inflamed joint; 1000 mg dose, after the first injection, estimated) was about 80% and the “time until reduced inflammation and increased freedom of movement is noticeable” value (inflamed joint; from the initial injection, typical doses 500 mg or 1000 mg in aqueous solution) was at most 48 h.
